Emission maximum data for 36 compounds are collected here from the Deep4Chem optical property database.

One data set in a line: solvent given as SMILES. To be noted: in CO.
For the compound `Cc1cccc(-c2[nH]c(=O)n3c2-c2ccccc2C3=O)c1O`, the emission maximum is 496 nm.
Compound `COc1cc2c(cc1/C=C(\C#N)c1nc3ccccc3s1)c1ccccc1n2C` gave an emission maximum of 510 nm.
Take `CN1c2ccccc2C(O)(c2ccccc2)c2cc([N+](=O)[O-])ccc21` (configuration not stated): the emission maximum turned out to be 544.7 nm.
For `[C-]#[N+]c1ccc(-c2ccc(N(C)C)cc2)cc1`, the emission maximum was 430 nm.
Consider `CNCCCC1c2ccccc2C=Cc2ccccc21`, for which the emission maximum is 358 nm.
On the same count and under the same terms, as for `CSc1sc(C(=O)c2ccccc2)c2nn[nH]c(=O)c12`, the figure is 495 nm; as for `N#Cc1c[nH]c2ccccc12`, 314 nm; as for `O=Cc1cc(O)c(C=O)cc1O`, 492 nm.
As to `CCNc1cc2c(cc1C)C(c1ccccc1C(=O)O)=C1CCCC(/C=C/C3=[N+](C)c4ccccc4C3(C)C)=C1O2`, the emission maximum came out at 720 nm.
Still for that read-out and setting: with `O=c1[nH]c(=O)n([C@@H]2O[C@H](CO)[C@@H](O)[C@H]2O)cc1-c1cc2ccccc2s1` the figure was 446 nm; with `COc1cc(/C=C/C(=O)CC(=O)/C=C/c2ccc(O)c(OC)c2)ccc1O`, 560 nm; with `N#Cc1cccc2cc[nH]c12`, 387 nm.

Staying with this data set, now noted: in CS(C)=O.
Compound `COc1cc2c(cc1/C=C(\C#N)c1nc3ccccc3s1)c1ccccc1n2C` had an emission maximum of 518 nm.
Turning to `CN1c2ccccc2C(O)(c2ccccc2)c2cc([N+](=O)[O-])ccc21` (configuration not stated), the emission maximum is reported as 566.8 nm.
Compound `[C-]#[N+]c1ccc(-c2ccc(N(C)C)cc2)cc1` showed an emission maximum of 447 nm.
As to `CSc1sc(C(=O)c2ccccc2)c2nn[nH]c(=O)c12`, the emission maximum amounted to 497 nm.
Compound `N#Cc1c[nH]c2ccccc12` had an emission maximum of 316 nm.
Compound `O=Cc1cc(O)c(C=O)cc1O` gave an emission maximum of 495 nm.
Take `COc1cc(/C=C/C(=O)CC(=O)/C=C/c2ccc(O)c(OC)c2)ccc1O`: the emission maximum is given as 549 nm.
Same read-out and setting: with `N#Cc1cccc2cc[nH]c12` the figure was 391 nm.

The same data set, now with this note: in Cc1ccccc1.
In turn, `CN(C)c1ccc(C2=Nc3sc4ccccc4[n+]3[B-](F)(F)O2)cc1` registered an emission maximum of 450 nm.
Compound `c1cc2ccc3ccc4cc3c2cc1c1ccc2c(c1)c1cc(ccc1[C@]13OCCO[C@]21OCCO3)c1ccc2c(c1)c1cc4ccc1[C@]13OCCO[C@]21OCCO3` registered an emission maximum of 388 nm.
`COc1cc2c(cc1/C=C(\C#N)c1nc3ccccc3s1)c1ccccc1n2C` displayed an emission maximum of 494 nm.
Same read-out and setting: as for `Fc1c(F)c(-n2c3ccccc3c3ccccc32)c(F)c(F)c1-c1nnc(-c2ccccc2)o1`, the figure is 444 nm; as for `c1ccc(N2c3ccc4ccccc4c3-c3c4ccccc4cc[n+]3[B-]2(c2ccccc2)c2ccccc2)cc1`, 623 nm.
`CN1c2ccccc2C(O)(c2ccccc2)c2cc([N+](=O)[O-])ccc21` (configuration not stated): the emission maximum amounted to 480.7 nm.
Compound `[C-]#[N+]c1ccc(-c2ccc(N(C)C)cc2)cc1` came in with an emission maximum of 387 nm.
`COc1ccc2c3c(c4ccc(C(C)(C)C)cc4c2c1)=C(c1cc(OC)c(OC)c(OC)c1)C1=Nc2c(-c4cc(OC)c(OC)c(OC)c4)c4c5ccc(C(C)(C)C)cc5c5cc(OC)ccc5c4n2[B-](F)(F)[N+]=31` had an emission maximum of 810 nm.
Consider `CCCC1=Cc2nc1ccc1[nH]c(cc1CCC)c1nc(ccc3[nH]c2cc3CCC)C(CCC)=C1`, for which the emission maximum amounted to 641 nm.
Still for that read-out and setting: as for `CC1(C)c2ccccc2N(c2ccc(-c3nnc(-c4ccccc4)o3)cc2)c2ccccc21`, the figure is 450 nm.

The data set is the same for the next values; noted with them: in ClC(Cl)Cl.
With `CN(C)c1ccc(C#Cc2ccc(-c3nc(C#N)c(C#N)n3C)cc2)cc1`, the emission maximum came out at 479 nm.
Compound `CCCCCCN1C(=O)c2cc(-c3ccc(-n4c5ccccc5c5ccccc54)cc3)c(-c3ccc(-n4c5ccccc5c5ccccc54)cc3)cc2C1=O` showed an emission maximum of 548 nm.
Regarding `COc1cc2c(cc1/C=C(\C#N)c1nc3ccccc3s1)c1ccccc1n2C`, the emission maximum was found to be 504 nm.
Regarding `N#Cc1cc2sccc2c2c1ccc1ccccc12`, the emission maximum was determined as 382 nm.
Compound `C[Si](C)(C)C#Cc1c2c(=O)c3ccccc3c2c(C#C[Si](C)(C)C)c2c(=O)c3ccccc3c12` displayed an emission maximum of 571 nm.
`[C-]#[N+]c1ccc(-c2ccc(N(C)C)cc2)cc1`: the emission maximum was found to be 405 nm.
Same read-out and setting: as for `COc1ccc(C2=Cc3ccc4ccccc4[n+]3[B-](F)(F)O2)cc1`, the figure is 457 nm; as for `COc1cc2cc(OC)c(-c3ccc([N+](=O)[O-])cc3)cc2cc1-c1ccc([N+](=O)[O-])cc1`, 544 nm; as for `CCNc1cc2c(cc1C)C(c1ccccc1C(=O)O)=C1CCCC(/C=C/C3=[N+](C)c4ccccc4C3(C)C)=C1O2`, 722 nm.

The data set is the same for the next values; noted with them: in ClCCl.
`CN(C)c1ccc(C2=Nc3sc4ccccc4[n+]3[B-](F)(F)O2)cc1` gave an emission maximum of 467 nm.
Still for that read-out and setting: with `c1ccc(-c2ccc3c4ccc(-c5ccccc5)c5c(-c6ccccc6)ccc(c6cccc2c63)c54)cc1` the figure was 500 nm.
Compound `COc1ccc2c(c1)cc(C)c1c3ccccc3[nH]c21` showed an emission maximum of 363 nm.
The same measure, in the same setting: as for `COc1ccc2ccccc2c1C1=CC(c2ccccc2)=C(c2ccccc2)C1`, the figure is 471 nm.
On the same count and under the same terms, with `Cc1cccc(-c2[nH]c(=O)n3c2-c2ccccc2C3=O)c1O` the figure was 473 nm.
Compound `COc1cc2c(cc1/C=C(\C#N)c1nc3ccccc3s1)c1ccccc1n2C` gave an emission maximum of 501 nm.
In the case of `CCCCCN1c2ccccc2Sc2cc(/C=C/c3ccc(/C=C(\C#N)C(=O)O)s3)ccc21`, the emission maximum is listed as 704 nm.
As for `C(S/C=C/c1ccc(/C=C/SC=C2CCCCCC2)cc1)=C1CCCCCC1`, the emission maximum came to 422 nm.
The same measure, in the same setting: with `c1ccc2c(c1)-c1sc3ccccc3c1C21c2ccccc2-c2sc3ccccc3c21` the figure was 368 nm; with `[C-]#[N+]c1ccc(-c2ccc(N(C)C)cc2)cc1`, 412 nm; with `N#Cc1ncc(-c2c3ccccc3c(-c3cnc(C#N)nc3)c3ccccc23)cn1`, 464 nm.
Compound `COc1cc2cc(OC)c(-c3ccc([N+](=O)[O-])cc3)cc2cc1-c1ccc([N+](=O)[O-])cc1` showed an emission maximum of 578 nm.
`COc1cc(/C=C/c2nc(N3CCOCC3)c3c([n+]2[O-])CCCC3)cc(OC)c1OC`: the emission maximum is listed as 521 nm.
On the same count and under the same terms, as for `COCc1ncc(-c2c3ccccc3c(-c3cnc(COC)nc3)c3ccccc23)cn1`, the figure is 420 nm.

The same data set, now with this note: in NC=O.
The compound `O=Cc1cc(O)c(C=O)cc1O` yielded an emission maximum of 490 nm.

Still in this data set, the particulars now being: in O.
Turning to `COc1cc(/C=C/C(=O)O)ccc1O`, the emission maximum is reported as 413 nm.
The same measure, in the same setting: as for `[C-]#[N+]c1ccc(-c2ccc(N(C)C)cc2)cc1`, the figure is 417 nm.
On the same count and under the same terms, with `CNCCCC1c2ccccc2C=Cc2ccccc21` the figure was 360 nm; with `N#Cc1c[nH]c2ccccc12`, 320 nm; with `O=c1[nH]c(=O)n([C@@H]2O[C@H](CO)[C@@H](O)[C@H]2O)cc1-c1cc2ccccc2s1`, 458 nm.
With `N#Cc1cccc2cc[nH]c12`, the emission maximum is 400 nm.

The data set is the same for the next values; noted with them: in OCC(F)(F)F.
`Cc1cc2c(o1)c(C)cc1ccc(=O)oc12` displayed an emission maximum of 485 nm.
`N#Cc1c[nH]c2ccccc12` returned an emission maximum of 314 nm.
Regarding `N#Cc1cccc2cc[nH]c12`, the emission maximum came out at 391 nm.

Still in this data set, the particulars now being: in c1ccc2c(c1)c1ccccc1n2-c1ccc(-c2ccc(-n3c4ccccc4c4ccccc43)cc2)cc1.
The compound `CCCCCCN1C(=O)c2cc(-c3ccc(-n4c5ccccc5c5ccccc54)cc3)c(-c3ccc(-n4c5ccccc5c5ccccc54)cc3)cc2C1=O` came in with an emission maximum of 481 nm.

The data set is the same for the next values; noted with them: in c1ccc(-n2c(-c3c(-n4c5ccccc5c5ccccc54)cccc3-n3c4ccccc4c4ccccc43)nc3ccccc32)cc1.
`CC1(C)c2ccccc2N(c2ccc(-c3nnc(-c4ccccc4)o3)cc2)c2ccccc21` showed an emission maximum of 455 nm.

Still in this data set, the particulars now being: in c1ccccc1.
With `COc1cc(/C=C/C(=O)CC(=O)/C=C/c2ccc(O)c(OC)c2)ccc1O`, the emission maximum worked out at 464 nm.

Still in this data set, the particulars now being: in c1ccncc1.
Consider `[C-]#[N+]c1ccc(-c2ccc(N(C)C)cc2)cc1`, for which the emission maximum worked out at 422 nm.
